Laboratory results taken from patent US20240156972A1 (priority 2021, published 2024).
Numbered stars: 1 amine (or outer) side, 2 acyl side, 3 side chain; on linkers, the order of the positions; unused ones are H or OH. Square brackets hold non-standard residues; d marks the D form. Peptide text beside a SMILES is read from it. X1 = O=C(C(Cc1cccc(S(=O)(=O)F)c1)N[*:1])[*:2]; Lys(N3) = [N-]=[N+]=NCCCC[C@H](N)C(=O)O; X2 = N=C(N)CCCC[C@H](N[*:1])C(=O)[*:2]; Y‑OSO2F = fluorosulfate Tyr; N3‑K = azido-Lys

Key:
[1] = test system: PSMA-expressing human embryonic kidney (HEK) cells; assay: ARM 1.2-mediated ADCP by U937 human monocytes, 2-color flow cytometry; type: cell-based
Description: ADCP of PSMA-expressing human cells by human monocytes was assessed in the presence of ARM 1.2 and anti-gD1 mouse IgG2a antibody (FIG. 12). ADCP was determined by 2-color flow cytometry assays, where target cell phagocytosis was measured by double positive cell events consisting of FL-1 dye-labeled U937 human monocytes and FL-4 dye-labeled engineered human embryonic kidney (HEK) cells expressing PSMA.
Robust ADCP was only observed when cell surface PSMA and anti-HSV antibody are both present (HEK+_EXP).

[2] = Stability of covalent antibody-binding peptides in 1×PBS by LC-HRMS; type: physicochemical; conditions: 500 μM, room temperature
Description: Liquid chromatography-high resolution mass spectrometry (LC-HRMS) data was obtained on a BRUKER MicroTOF II mass spectrometer. Samples were dissolved in 1×PBS at 500 μM concentrations and were monitored for stability at room temperature over indicated periods of time. Specific m/z −20 amu (loss of H^+ and F^−) and m/z −2 amu (F/OH exchange) masses were monitored to probe off-pathway cyclization and hydrolysis reactions, respectively.
To evaluate the stability of peptide 5 (gDR(F10FSY)), the peptide (500 μM) was incubated in 1×PBS at room temperature and analyzed by LC-HRMS at 0, 24, 48 and 72 hours (FIG. 83). […] Hydrolyzed peptide appeared to elute just before intact peptide after 3 days of incubation.
To evaluate the stability of peptide 7 (ASF-gDR), the peptide (500 μM) was incubated in 1×PBS at room temperature and analyzed by LC-HRMS at 0, 24, 48 and 72 hours.

[3] = Stability of aryl sulfonyl fluoride group in PBS by 19F NMR; type: physicochemical; conditions: PBS (90% PBS), 10% D2O, room temperature, F− appearance, read-out: half-life of sulfonyl fluoride hydrolysis (converted)
Description: A 700 MHz NMR was used to measure ^19F NMR spectra. Bruker TopSpin 4.0.9 was used to process and analyze spectra. GraphPad Prism 8 software was used to visualize and perform non-linear regression of acquired data.
Peptide 7 (ASF-gDR) was used to investigate the stability of the meta-aryl sulfonyl fluoride (ASF) group in 1×PBS at room temperature. The sample was prepared at a 0.5 mM concentration in 90% PBS, 10% D2O. A 700 MHz NMR was used to monitor sulfonyl fluoride disappearance and fluoride (F^− (aq)) appearance overtime, relative to a TFA internal standard. To quantify fluoride loss and gain, peaks were positively phased and integrated relative to the TFA internal standard, which was held constant at three fluoride atoms. A plot of fluoride leaving group appearance over time was fitted with the first order decay equation.
Half-life was calculated from a plot of integrated F^− over time using Equation 1.

For `CSCC[C@H](NC(=O)[C@@H](C)NC(=O)[C@@H](CC(=O)O)NC(=O)[C@H]1CCCN1C(=O)[C@@H](CC(N)=O)NC(=O)[C@H](CCCNC(=N)N)NC(=O)[C@@H](Cc1ccccc1)NC(=O)[C@H](CCCNC(=N)N)NC(=O)CNC(=O)[C@H](CCCCN)NC(=O)[C@@H](CC(=O)O)NC(=O)[C@H](CC(C)C)NC(=O)[C@H](CCCCn1cc(COCCOCCOCCOCCOCCOCCOCCOCCNC(=O)NCCCC[C@H](NC(=O)N[C@@H](CCC(=O)O)C(=O)O)C(=O)O)nn1)NC(C)=O)C(=O)N[C@H](CCCCN)C(=O)N[C@@H](CC(C)C)C(N)=O` [ARM 1.2, GUL-PEG8-HSVqD1], the ADCP ([1]; HEK+_EXP: cell surface PSMA and anti-HSV antibody both present) was “Robust ADCP” and the “ADCP in control samples” value ([1]; isotype IgG, no antibody, free competitor, or HEK cells without PSMA) was “complete lack of ADCP”.

In the case of `CSCC[C@H](NC(=O)[C@H](CCCCC(=N)N)NC(=O)[C@H](CC(C)C)NC(=O)[C@H](CCCCN=[N+]=[N-])NC(=O)C(Cc1cccc(S(=O)(=O)F)c1)NC(C)=O)C(=O)N[C@@H](C)C(=O)N[C@@H](CC(=O)O)C(=O)N1CCC[C@H]1C(=O)N[C@@H](CC(N)=O)C(=O)N[C@@H](CCCNC(=N)N)C(=O)N[C@@H](Cc1ccccc1)C(=O)N[C@@H](CCCNC(=N)N)C(=O)NCC(=O)N[C@@H](CCCNC(=N)N)C(=O)N[C@@H](CC(=O)O)C(=O)N[C@@H](CC(C)C)C(N)=O` (some centres unmarked) [Peptide 7] (Ac-[X1][Lys(N3)]L[X2]MADPNRFRGRDL-NH2), the SuFEx hydrolysis ([2]; after 24 hours) is reported as roughly 50% and the half-life at 0.5 mM [3] is reported as 8.71 h.

For “Ac-(N3-K)-LRMADPNR-(Y-OSO2F)-RGRDL ({Ac-N3‑K}-LRMADPNR-{Y‑OSO2F-Arg-Gly-Arg-Asp-Leu-NH2}) [Peptide 5]”, the “stability by LC-HRMS” value ([2]; 0-72 hours) was “stable compound”.
